Laboratory results from patent US20020132817A1, “Heterocyclic compounds, their production and use” (priority 1998, published 2002).
pIC50: −log10 of the molar value.

What was measured:
substance P receptor = molecular target: T1, substance P receptor (Homo sapiens, UniProt P25103); experiment: Radioligand receptor binding inhibitory activity using receptor from human lymphoblast cells (IM-9); details: 125I-BHSP radioligand, receptor from IM-9 cells, 25° C. for 30 minutes
T1 construct: The receptor was prepared from human lymphoblast cells (IM-9); endogenous in cells; host or cells: IM-9 human lymphoblast cells (membrane preparation)
Protocol: Radioligand receptor binding inhibitory activity Binding inhibitory activity using receptor from human lymphoblast cells (IM-9)
The receptor was prepared from human lymphoblast cells (IM-9). IM-9 cells (2×10^5 cells/ml) were inoculated and incubated for 3 days (one liter), which was then subjected to centrifuge for 5 minutes at 500×g to obtain cell pellets. […] The residue was washed twice with 30 ml of the above-mentioned buffer, which was then preserved frozen (−80° C.) as a specimen of the receptor.
The specimen was suspended in a reaction buffer (50 mM Tri-HCl buffer (pH 7.4), 0.02% bovine serum albumin, 1 mM phenylmethylsulfonyl fluoride, […], […] bacitracin, 3 mM manganese chloride) and 100 ul portion was the suspension was used in the reaction. […] The amount of nonspecific binding was determined by adding substance P at a final concentration of 2×10^−6M. After the reaction, using a cell harvester (290 PHD, Cambridge Technology, Inc, U.S.A.), rapid filtration was carried out through a glass filter (GF/B, Whatman, U.S.A.) to stop the reaction. After washing three times with 250 ul of 50 mM of Tris-HCl buffer (pH 7.4) containing 0.02% bovine serum albumin, the radioactivity remaining on the filter was determined with a gamma counter. Before use, the filter was immersed in 0.1% polyethyleneimine for 24 hours and air-dried.

[1] = tested on: plasma extravasation induced by capsaicin in trachea of guinea pigs; experiment: Inhibitory effect on plasma extravasation induced by capsaicin in trachea of guinea pigs; format: in vivo; details: Cavia porcellus, iv, 5 minutes before capsaicin, Evans' blue dye in trachea, read-out: ID50, μg/kg, i.v.
Protocol: Guinea pigs (Hartley type white male guinea pige), (n=6) were anesthetized with 35 mg/kg of pentobarbital injected intraperitoneally (i.p.), then test compounds were administered intravenously (i.v.). After 5 minutes, a mixed solution of capsaicin ([…]) and Evans' blue dye (20 mg/kg) was administered intravenously to cause reaction. Ten minutes later, test animals were sacrificed by cutting the aorta, then perfused through pulmonary artery with 50 ml of physiological saline. The trachea was excised, and its wet weight was measure. The trachea was incubated at room temperature in 1 ml of acetone-0.3% sodium sulfate (7:3) overnight and Evans' blue dye was extracted from the trachea. The extract solution was centrifuged at 2800 rpm for 5 minutes. The amount of Evans' blue dye in the supernatant was quantified by measuring absorbance at […].
The reaction of accelerating the permeability of blood vessels is expressed in terms of the amount of Evans' blue (μg) per trachea unit weight (g) and the effect of drug was evaluated by calculating the degree of inhibition (% inhibition) according to the following equation: […]

T1 sequence (P25103 whole entry): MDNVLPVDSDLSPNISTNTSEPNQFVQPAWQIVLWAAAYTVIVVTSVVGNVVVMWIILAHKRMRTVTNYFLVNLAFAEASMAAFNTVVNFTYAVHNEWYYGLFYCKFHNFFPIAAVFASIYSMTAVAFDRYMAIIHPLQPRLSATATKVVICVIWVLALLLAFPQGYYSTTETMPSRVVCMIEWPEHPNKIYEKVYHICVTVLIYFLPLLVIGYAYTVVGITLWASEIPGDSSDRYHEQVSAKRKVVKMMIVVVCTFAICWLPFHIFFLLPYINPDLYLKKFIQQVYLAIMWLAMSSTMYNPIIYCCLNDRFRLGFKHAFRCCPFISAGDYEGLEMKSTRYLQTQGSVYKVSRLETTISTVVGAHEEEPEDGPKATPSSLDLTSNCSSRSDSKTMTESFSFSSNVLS

Row | pIC50 (substance P receptor) | melting point [°C] | Compound | ED50 [1] [µg/kg]
1 | 9.77 | 139 to 140 | COCc1cc(-c2ccccc2)c2c(n1)OCCN(Cc1cc(C(F)(F)F)cc(C(F)(F)F)c1)C2=O [Reference Example 94, 4-[3,5-Bis(trifluoromethyl)benzyl]-2,3,4,5-tetrahydro-8-methoxymethyl-5-oxo-6-phenylpyrido[3,2-f][1,4]oxazepine] | –
2 | 9.07 | 200 to 202 | Cc1ccc(-c2c3n(c(=O)c4ncccc24)CC[C@@H](C)CN(Cc2cc(C)cc(C)c2)C3=O)cc1 [Example 9, (9R)-7-(3,5-dimethylbenzyl)-6,7,8,9,10,11-hexahydro-9-methyl-5-(4-methylphenyl)-6,13-dioxo-13H-[1,4]diazosino[2,1-g][1,7]napththylidine] | –
3 | 8.82 | 192 to 193 | COc1cc(CN2C[C@H](C)CCn3c(c(-c4ccc(F)cc4)c4cccnc4c3=O)C2=O)cc(OC)c1 [Example 12, (9R)-7-(3,5-dimethoxybenzyl)-5-(4-fluorophenyl)-6,7,8,9,10,11-hexahydro-9-methyl-6,13-dioxo-13H-[1,4]diazosino[2,1-g][1,7]napththylidine] | –
4 | 9.32 | 199 to 201 | COc1cc(CN2C[C@H](C)CCn3c(c(-c4ccccc4)c4cccnc4c3=O)C2=O)cc(OC)c1 [Example 5, (9R)-7-(3,5-dimethoxybenzyl)-6,7,8,9,10,11-hexahydro-9-methyl-6,13-dioxo-5-phenyl-13H-[1,4]diazosino[2,1-g][1,7]napththylidine] | –
5 | 9.44 | 147 to 148 | Cc1cnc2c(c1-c1ccccc1)C(=O)N(Cc1cc(C(F)(F)F)cc(C(F)(F)F)c1)C[C@H](C)CO2 [Reference Example 85, (S)-5-[3,5-Bis(trifluoromethyl)benzyl]-2,3,4,5-tetrahydro-3,8-dimethyl-6-oxo-7-phenyl-6H-pyrido[2,3-b][1,5]oxazocine] | –
6 | 8.96 | 229 to 230 | COc1cc(CN2C[C@H](C)CCn3c(c(-c4ccc(Cl)cc4)c4cccnc4c3=O)C2=O)cc(OC)c1 [Example 13, (9R)-5-(4-chlorophenyl)-7-(3,5-dimethoxybenzyl)-6,7,8,9,10,11-hexahydro-9-methyl-6,13-dioxo-13H-[1,4]diazosino[2,1-g][1,7]napththylidine] | –
7 | 9.06 | 257 to 258 | CC1CCn2c(c(-c3ccccc3)c3cccnc3c2=O)C(=O)N(Cc2cc(C(F)(F)F)cc(C(F)(F)F)c2)C1 (racemic) [Reference Example 69, (+/−)-7-[3,5-Bis(trifluoromethyl)benzyl]-6,7,8,9,10,11-hexahydro-9-methyl-6,13-dioxo-5-phenyl-13H-[1,4]diazocino[2,1-g][1,7]naphthyridine] | –
8 | 9.00 | 139 to 141 | Cc1ccc(-c2c3n(c(=O)c4ncccc24)CC[C@@H](C)CN(Cc2cc(Cl)cc(Cl)c2)C3=O)cc1 [Example 10, (9R)-7-(3,5-dichlorobenzyl)-6,7,8,9,10,11-hexahydro-9-methyl-5-(4-methylphenyl)-6,13-dioxo-13H-[1,4]diazosino[2,1-g][1,7]napththylidine] | –
9 | – | 179 to 180 | Cc1ccc(-c2c3n(c(=O)c4ncccc24)C[C@@H](C)CN(Cc2cc(C(F)(F)F)cc(C(F)(F)F)c2)C3=O)cc1 [Reference Example 68, (9S)-7-[3,5-Bis(trifluoromethyl)benzyl]-6,7,8,9,10,12-hexahydro-9-methyl-5-(4-methylphenyl)-6,12-dioxo[1,4]diazepino[2,1-g][1,7]naphthyridine] | 3.2
10 | 9.92 | 186 to 188 | CN(C)Cc1cc(-c2ccccc2)c2c(n1)OCCN(Cc1cc(C(F)(F)F)cc(C(F)(F)F)c1)C2=O [Reference Example 99, 4-[3,5-Bis(trifluoromethyl)benzyl]-8-dimethylaminomethyl-2,3,4,5-tetrahydro-5-oxo-6-phenylpyrido[3,2-f][1,4]oxazepine] | –
11 | 10.00 | 282 to 283 | Cc1ccc(-c2c3n(c(=O)c4ncccc24)CC(O)CN(Cc2cc(C(F)(F)F)cc(C(F)(F)F)c2)C3=O)cc1 (racemic) [Reference Example 79, (+/−)-7-[3,5-Bis(trifluoromethyl)benzyl]-6,7,8,9,10,12-hexahydro-9-hydroxy-5-(4-methylphenyl)-6,12-dioxo[1,4]diazepino [2,1-g][1,7]naphthyridine] | –
12 | 9.43 | – | C[C@@H]1CCn2c(c(-c3ccc(F)cc3)c3cccnc3c2=O)C(=O)N(Cc2cc(C(F)(F)F)cc(C(F)(F)F)c2)C1 [Example 14, (9R)-7-[3,5-bis(trifluoromethyl)benzyl]-5-(4-fluorophenyl)-6,7,8,9,10,11-hexahydro-9-methyl-6,13-dioxo-13H-[1,4]diazosino[2,1-g][1,7]napththylidine] | –

Further lines, the molecule ahead of its results:

Row | Compound | pIC50 (substance P receptor) | melting point [°C] | ED50 [1] [µg/kg]
13 | COc1cc(CN2C[C@H](C)CCn3c(c(-c4ccc(Cl)c(Cl)c4)c4cccnc4c3=O)C2=O)cc(OC)c1 [Example 8, (9R)-7-(3,5-dimethoxybenzyl)-5-(3,4-dichlorophenyl)-6,7,8,9,10,11-hexahydro-9-methyl-6,13-dioxo-13H-[1,4]diazosino[2,1-g][1,7]napththylidine] | 10.30 | 207 to 208 | –
14 | O=C1c2c(-c3ccccc3)c3cccnc3c(=O)n2CCCN1Cc1cc(C(F)(F)F)cc(C(F)(F)F)c1 [Reference Example 61, 7-[3,5-Bis(trifluoromethyl)benzyl]-6,7,8,9,10,12-hexahydro-6,12-dioxo-5-phenyl[1,4]diazepino[2,1-g][1,7]naphthyridine] | – | – | 2.6
15 | Cc1cc(-c2ccccc2)c2c([n+]1[O-])OCCN(Cc1cc(C(F)(F)F)cc(C(F)(F)F)c1)C2=O [Reference Example 89, 4-[3,5-Bis(trifluoromethyl)benzyl]-2,3,4,5-tetrahydro-8-methyl-5-oxo-6-phenylpyrido[3,2-f][1,4]oxazepine 9-oxide] | 9.36 | 181 to 183 | –
16 | CC(=O)OCc1cc(-c2ccccc2)c2c(n1)OCCCN(Cc1cc(C(F)(F)F)cc(C(F)(F)F)c1)C2=O [Reference Example 92, 9-Acetoxymethyl-5-[3,5-bis(trifluoromethyl)benzyl]-2,3,4,5-tetrahydro-6-oxo-7-phenyl-6H-pyrido[2,3-b][1,5]oxazocine] | 9.13 | 156 to 157 | –
17 | O=C1c2c(-c3ccccc3)cc(CCl)nc2OCCN1Cc1cc(C(F)(F)F)cc(C(F)(F)F)c1 [Reference Example 93, 4-[3,5-Bis(trifluoromethyl)benzyl]-8-chloromethyl-2,3,4,5-tetrahydro-5-oxo-6-phenylpyrido[3,2-f][1,4]oxazepine] | 9.38 | 183 to 184 | –
18 | Cc1ccc(-c2c3n(c(=O)c4ncccc24)CCCCCN(Cc2cc(C(F)(F)F)cc(C(F)(F)F)c2)C3=O)cc1 [Reference Example 60, 7-[3,5-Bis(trifluoromethyl)benzyl]-6,7,8,9,10,11,12,14-octahydro-5-(4-methylphenyl)-6,14-dioxo[1,4]diazonino[2,1-g][1,7]naphthyridine] | – | – | 11
19 | CCC1CCn2c(c(-c3ccc(C)cc3)c3cccnc3c2=O)C(=O)N(Cc2cc(C(F)(F)F)cc(C(F)(F)F)c2)C1 (racemic) [Example 15, (±)-7-[3,5-bis(trifluoromethyl)benzyl]-9-ethyl-6,7,8,9,10,11-hexahydro-5-(4-methylphenyl)-6,13-dioxo-13H-[1,4]diazosino[2,1-g][1,7]napththylidine] | 8.96 | 258 to 260 | –
20 | Cc1cc(C)cc(CN2C[C@H](C)CCn3c(c(-c4ccc(Cl)c(Cl)c4)c4cccnc4c3=O)C2=O)c1 [Example 11, (9R)-5-(3,4-dichlorophenyl)-7-(3,5-dimethylbenzyl)-6,7,8,9,10,11-hexahydro-9-methyl-6,13-dioxo-13H-[1,4]diazosino[2,1-g][1,7]napththylidine] | 9.09 | 137 to 139 | –
21 | CC(=O)OCc1cc(-c2ccccc2)c2c(n1)OCCN(Cc1cc(C(F)(F)F)cc(C(F)(F)F)c1)C2=O [Reference Example 91, 8-Acetoxymethyl-4-[3,5-bis(trifluoromethyl)benzyl]-2,3,4,5-tetrahydro-5-oxo-6-phenylpyrido[3,2-f][1,4]oxazepine] | 9.55 | 122 to 124 | –
